# Target: T1, BACE1 (Homo sapiens, UniProt P56817)
# T1 construct: endogenous in cells; host or cells: HEK293 APP cells
# Experiment: Cellular Aβ-lowering assay (Abeta 40 AlphaLISA, HEK293 APP cells)
# Format: cell-based
# Conditions: 18-20 hrs incubation, Aβ 40 in culture supernatant, read-out: BACE1 cell act. Aβ40 IC50
# Protocol: Cellular Aβ-Lowering Assay:
# The Abeta 40 AlphaLISA Assay can be used. The HEK293 APP cells were seeded in 96 well Microtiter plates in cell culture medium (Iscove's, plus 10% (v/v) fetal bovine serum, penicillin/streptomycin) to about 80% confluency and the compounds were added at a 3× concentration in ⅓ volume of culture medium (final DMSO concentration was kept at 1% v/v). After 18-20 hrs incubation at 37° C. and 5% CO2 in a humidified incubator, the culture supernatants were harvested for the determination of Aβ 40 concentrations using Perkin-Elmer Human Amyloid beta 1-40 (high specificity) Kit (Cat#AL275C).
# In a Perkin-Elmer White Optiplate-384 (Cat#6007290), 2 ul culture supernatants were combined with 2 μl of a 10× AlphaLISA Anti-hAβAcceptor beads + Biotinylated Antibody Anti-Aβ 1-40 Mix (50 μg/mL/5 nM). After 1 hour room temperature incubation, 16 μl of a 1.25× preparation of Streptavidin (SA) Donor beads (25 μg/mL) were added and incubated for 30 minutes in the Dark. Light Emission at 615 nm was then recorded using EnVision-Alpha Reader. Levels of Aβ 40 in the culture supernatants were calculated as percentage of maximum signal (cells treated with 1% DMSO without inhibitor). The IC50 values were calculated using the Excel XLfit software.
# T1 sequence (P56817 46-501): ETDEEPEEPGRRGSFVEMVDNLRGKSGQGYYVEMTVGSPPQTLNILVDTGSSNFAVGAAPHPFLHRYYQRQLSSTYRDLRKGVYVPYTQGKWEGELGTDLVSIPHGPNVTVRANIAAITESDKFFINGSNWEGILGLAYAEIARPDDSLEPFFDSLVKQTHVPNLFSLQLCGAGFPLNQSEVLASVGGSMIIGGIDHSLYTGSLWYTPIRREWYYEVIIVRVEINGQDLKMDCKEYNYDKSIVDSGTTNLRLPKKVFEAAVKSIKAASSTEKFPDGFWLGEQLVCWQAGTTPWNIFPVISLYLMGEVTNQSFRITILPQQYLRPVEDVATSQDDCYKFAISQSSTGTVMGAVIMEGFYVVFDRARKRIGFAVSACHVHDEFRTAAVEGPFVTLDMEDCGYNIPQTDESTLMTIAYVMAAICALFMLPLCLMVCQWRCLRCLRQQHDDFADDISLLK
row,IC50 [nM],SMILES
1,119,"CN=[S@@]1(=O)C[C@@](CF)(c2cc(-c3cc(-c4ncc(OC)cn4)no3)ccc2F)N=C(N)C1(C)C [Example 17, (1R,3S)-3-[2-fluoro-5-[3-(5-methoxypyrimidin-2-yl)isoxazol-5-yl]phenyl]-3-(fluoromethyl)-6,6-dimethyl-1-methylimino-1-oxo-2H-1,4-thiazin-5-amine]"
2,61,"CN=[S@@]1(=O)C[C@@](C)(c2cc(-c3cc(-c4cnc(OCC5CC5)cn4)no3)ccc2F)N=C(N)C1(C)C [Example 22, (1R,3R)-5-amino-3-(5-(3-(5-(cyclopropylmethoxy)pyrazin-2-yl)isoxazol-5-yl)-2-fluorophenyl)-3,6,6-trimethyl-1-(methylimino)-3,6-dihydro-2H-1,4-thiazine 1-oxide]"
3,139,"CN=[S@@]1(=O)C[C@@](C)(c2cc(-c3cc(-c4cnc(OC)cn4)no3)ccc2F)N=C(N)C12CCCC2 [Example 27, (6R,8R)-10-amino-8-(2-fluoro-5-(3-(5-methoxypyrazin-2-yl)isoxazol-5-yl)phenyl)-8-methyl-6-(methylimino)-6-thia-9-azaspiro[4.5]dec-9-ene 6-oxide 2,2,2-trifluoroacetate]"
4,13,"CN=[S@@]1(=O)C[C@@](C)(c2cc(-c3cc(-c4ncc(OCC(F)F)cn4)no3)ccc2F)N=C(N)C1(C)C [Example 18, (1R,3R)-3-[5-[3-[5-(2,2-difluoroethoxy)pyrimidin-2-yl]isoxazol-5-yl]-2-fluoro-phenyl]-3,6,6-trimethyl-1-methylimino-1-oxo-2H-1,4-thiazin-5-amine]"
5,17,"CN=[S@@]1(=O)C[C@@](C)(c2cc(-c3cn(-c4ccc(Cl)cn4)nn3)ccc2F)N=C(N)C1(C)C [Example 9, (1R,3R)-5-amino-3-(5-(1-(5-chloropyridin-2-yl)-1H-1,2,3-triazol-4-yl)-2-fluorophenyl)-3,6,6-trimethyl-1-(methylimino)-3,6-dihydro-2H-1,4-thiazine 1-oxide 2,2,2-trifluoroacetate]"
6,13,"[2H]C([2H])([2H])N=[S@@]1(=O)C[C@@](C)(c2cc(-c3cc(-c4ncc(OCC(F)(F)C(F)F)cn4)no3)ccc2F)N=C(N)C1(C)C [Example 25, (1R,3R)-3-[2-fluoro-5-[3-[5-(2,2,3,3-tetrafluoropropoxy)pyrimidin-2-yl]isoxazol-5-yl]phenyl]-3,6,6-trimethyl-1-oxo-1-(trideuteriomethylimino)-2H-1,4-thiazin-5-amine 2,2,2-trifluoroacetate]"
7,19,"CN=[S@]1(=O)C[C@@](C)(c2cc(-c3cc(-c4ncc(Cl)cn4)no3)ccc2F)N=C(N)C1(C)C [Example 12, (1S,3R)-5-amino-3-(5-(3-(5-chloropyrimidin-2-yl)isoxazol-5-yl)-2-fluorophenyl)-3,6,6-trimethyl-1-(methylimino)-3,6-dihydro-2H-1,4-thiazine 1-oxide 2,2,2-trifluoroacetate]"
8,156,"CN=[S@@]1(=O)C[C@@](CF)(c2cc(-c3cn(-c4ccc(Cl)cn4)nn3)ccc2F)N=C(N)C1(C)C [Example 16, (1R,3S)-5-amino-3-(5-(1-(5-chloropyridin-2-yl)-1H-1,2,3-triazol-4-yl)-2-fluorophenyl)-3-(fluoromethyl)-6,6-dimethyl-1-(methylimino)-3,6-dihydro-2H-1,4-thiazine 1-oxide 2,2,2-trifluoroacetate]"
9,13,"CC1(C)C(N)=N[C@](C)(c2cc(-c3cc(-c4ncc(Cl)cn4)no3)ccc2F)C[S@@]1(=O)=NCC(F)(F)F [Example 38, (1S,3R)-5-amino-3-(5-(3-(5-chloropyrimidin-2-yl)isoxazol-5-yl)-2-fluorophenyl)-3,6,6-trimethyl-1-((2,2,2-trifluoroethyl)imino)-3,6-dihydro-2H-1,4-thiazine 1-oxide 2,2,2-trifluoroacetate]"
10,104,"CN=[S@@]1(=O)C[C@@](C)(c2cc(-c3cc(-c4cnc(OCC(F)F)cn4)no3)ccc2F)N=C(N)C12CCCC2 [Example 30, (6R,8R)-10-amino-8-(5-(3-(5-(2,2-difluoroethoxy)pyrazin-2-yl)isoxazol-5-yl)-2-fluorophenyl)-8-methyl-6-(methylimino)-6-thia-9-azaspiro[4.5]dec-9-ene 6-oxide]"
11,7,"CC1(C)C(N)=N[C@](C)(c2cc(-c3cc(-c4ncc(Cl)cn4)no3)ccc2F)C[S@@]1(=O)=NC1CC1 [Example 36, (1S,3R)-5-amino-3-(5-(3-(5-chloropyrimidin-2-yl)isoxazol-5-yl)-2-fluorophenyl)-1-(cyclopropylimino)-3,6,6-trimethyl-3,6-dihydro-2H-1,4-thiazine 1-oxide 2,2,2-trifluoroacetate]"
12,141,"CN=[S@]1(=O)C[C@@](CF)(c2cc(-c3cc(-c4cnc(OC)cn4)no3)ccc2F)N=C(N)C1(C)C [Example 2, (1S,3S)-5-amino-3-(2-fluoro-5-(3-(5-methoxypyrazin-2-yl)isoxazol-5-yl)phenyl)-3-(fluoromethyl)-6,6-dimethyl-1-(methylimino)-3,6-dihydro-2H-1,4-thiazine 1-oxide 2,2,2-trifluoroacetate]"
13,22,"CN=[S@@]1(=O)C[C@@](C)(c2cc(-c3cc(-c4ncc(C#N)cn4)no3)ccc2F)N=C(N)C1(C)C [Example 8, 2-(5-(3-((1R,3R)-5-amino-3,6,6-trimethyl-1-(methylimino)-1-oxido-3,6-dihydro-2H-1,4-thiazin-3-yl)-4-fluorophenyl)isoxazol-3-yl)pyrimidine-5-carbonitrile 2,2,2-trifluoroacetate]"
14,6,"COc1cnc(-c2cc(-c3ccc(F)c([C@]4(C)C[S@@](=O)(=NCC(F)(F)F)C(C)(C)C(N)=N4)c3)on2)cn1 [Example 37, (1S,3R)-5-amino-3-(2-fluoro-5-(3-(5-methoxypyrazin-2-yl)isoxazol-5-yl)phenyl)-3,6,6-trimethyl-1-((2,2,2-trifluoroethyl)imino)-3,6-dihydro-2H-1,4-thiazine 1-oxide 2,2,2-trifluoroacetate]"
15,111,"CN=[S@@]1(=O)C[C@@](CF)(c2cc(-c3cc(-c4cnc(OCC(F)F)cn4)no3)ccc2F)N=C(N)C1(C)C [Example 4, (1R,3S)-5-amino-3-(5-(3-(5-(2,2-difluoroethoxy)pyrazin-2-yl)isoxazol-5-yl)-2-fluorophenyl)-3-(fluoromethyl)-6,6-dimethyl-1-(methylimino)-3,6-dihydro-2H-1,4-thiazine 1-oxide 2,2,2-trifluoroacetate]"
16,103,"CN=[S@@]1(=O)C[C@@](CF)(c2cc(-c3cn(-c4ccc(C#N)cn4)nn3)ccc2F)N=C(N)C1(C)C [Example 14, 6-(4-(3-((1R,3S)-5-amino-3-(fluoromethyl)-6,6-dimethyl-1-(methylimino)-1-oxido-3,6-dihydro-2H-1,4-thiazin-3-yl)-4-fluorophenyl)-1H-1,2,3-triazol-1-yl)nicotinonitrile 2,2,2-trifluoroacetate]"
17,13,"CC1(C)C(N)=N[C@](C)(c2cc(-c3cc(-c4ncc(Cl)cn4)no3)ccc2F)C[S@]1(=O)=NC1CC1 [Example 34, (1R,3R)-3-[5-[3-(5-chloropyrimidin-2-yl)isoxazol-5-yl]-2-fluoro-phenyl]-1-cyclopropylimino-3,6,6-trimethyl-1-oxo-2H-1,4-thiazin-5-amine 2,2,2-trifluoroacetate]"

# Source: US10047081B2, “BACE1 inhibitors” (Hoffmann-La Roche Inc., priority 2015, dated 2018)
